Laboratory results taken from patent publication US20050197350A1, “Novel quinoline, tetrahydroquinazoline, and pyrimidine derivatives and methods of treatment related to the use thereof” (TAISHO PHARMACEUTICAL CO., LTD., priority 2003, published 2005).
Counter-ions that a name gives are not always drawn.

These compounds were tested against MCH receptor (Homo sapiens, UniProt Q99705) (assay: High throughput functional screening FLIPR/FDSS6000 (intracellular Ca2+ evoked by MCH)). Conditions: FLIPR/FDSS, antagonist activity vs 50 nM MCH; class by percent of control at 10^−7 M or IC50; read-out: class.
Format: cell-based
Procedure, shortened: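 For antagonist testing, compound-treated cells (30 min, 37 °C) were stimulated with 50 nM MCH and intracellular Ca2+ followed by Fluo4 fluorescence on FLIPR/FDSS6000. Receptor was a constitutively active, non-endogenous MCH receptor; dye loading 4 μM Fluo4-AM, 1 h, 37 °C.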

Row | SMILES | IC50
1 | Cc1cnc(N[C@H]2CC[C@@H](NC(=O)Nc3ccccc3OC(F)(F)F)CC2)nc1N(C)C [Example 3330, N-(cis-4-{[4-(dimethylamino)-5-methylpyrimidin-2-yl]amino}cyclohexyl)-N′-[2-(trifluoromethoxy)phenyl]urea] | < 50 nM
2 | COc1ccc(S(=O)(=O)c2ncccc2C(=O)N[C@H]2CC[C@@H](Nc3ncc(C)c(N(C)C)n3)CC2)cc1 [Example 3286, N-(cis-4-{[4-(dimethylamino)-5-methylpyrimidin-2-yl]amino}cyclohexyl)-2-[(4-methoxyphenyl)sulfonyl]-nicotinamide] | > 200 nM
3 | Cc1ccccc1NC(=O)N[C@H]1CC[C@@H](Nc2ncc(C)c(N(C)C)n2)CC1 [Example 3336, N-(cis-4-{[4-(dimethylamino)-5-methylpyrimidin-2-yl]amino}cyclohexyl)-N′-(2-methylphenyl)urea] | 50 to 200 nM
4 | COc1ccccc1S(=O)(=O)c1ncccc1C(=O)N[C@H]1CC[C@@H](Nc2nc(C)cc(N(C)C)n2)CC1 [Example 3378, N-(cis-4-{[4-(dimethylamino)-6-methylpyrimidin-2-yl]amino}cyclohexyl)-2-[(2-methoxyphenyl)sulfonyl]-nicotinamide] | > 200 nM
5 | Cc1cnc(N[C@H]2CC[C@@H](NC(=O)c3cccnc3S(=O)(=O)c3ccc(Br)cc3)CC2)nc1N(C)C [Example 3289, 2-[(4-bromophenyl)sulfonyl]-N-(cis-4-{[4-(dimethylamino)-5-methylpyrimidin-2-yl]amino}cyclohexyl)nicotinamide] | 50 to 200 nM

Continued, values first:

Row | IC50 | SMILES
6 | > 200 nM | Cc1cc(N[C@H]2CC[C@@H](C(=O)N[C@H](C)c3ccccc3F)CC2)nc2ccccc12 [Example 3311, cis-N-[(1R)-1-(2-fluorophenyl)ethyl]-4-[(4-methylquinolin-2-yl)amino]cyclohexanecarboxamide]
7 | 50 to 200 nM | Cc1cc(N(C)C)nc(N[C@H]2CC[C@@H](NC(=O)NC(C)(C)c3cc(C(F)(F)F)cc(C(F)(F)F)c3)CC2)n1 [Example 3263, N-{1-[3,5-bis(trifluoromethyl)phenyl]-1-methylethyl}-N′-(cis-4-{[4-(dimethylamino)-6-methylpyrimidin-2-yl]amino}-cyclohexyl)urea]
8 | < 50 nM | Cc1cc(N[C@H]2CC[C@@H](NC(=O)c3ccc(OC(F)(F)F)cc3)CC2)nc2ccccc12 [Example 3382, N-{cis-4-[(4-methylquinolin-2-yl)amino]cyclohexyl}-4-(trifluoromethoxy)benzamide]
9 | 50 to 200 nM | Cc1cc(N(C)C)nc(N[C@H]2CC[C@@H](NC(=O)NC(C)(C)c3ccc(Cl)cc3)CC2)n1 [Example 3265, N-[1-(4-chlorophenyl)-1-methylethyl]-N′-(cis-4-{[4-(dimethylamino)-6-methylpyrimidin-2-yl]amino}cyclohexyl)urea]
10 | > 200 nM | COc1cccc(NC(=O)N[C@H]2CC[C@@H](Nc3ncc(C)c(N(C)C)n3)CC2)c1 [Example 3322, N-(cis-4-{[4-(dimethylamino)-5-methylpyrimidin-2-yl]amino}cyclohexyl)-N′-(3-methoxyphenyl)urea]
11 | < 50 nM | Cc1cnc(N[C@H]2CC[C@@H](C(=O)N[C@@H](C)c3ccc(Br)cc3)CC2)nc1N(C)C [Example 3308, cis-N-[(1S)-1-(4-bromophenyl)ethyl]-4-{[4-(dimethylamino)-5-methylpyrimidin-2-yl]amino}cyclohexanecarboxamide]
12 | > 200 nM | Cc1cnc(N[C@H]2CC[C@@H](NC(=O)N(C)c3ccccc3F)CC2)nc1N(C)C [Example 3346, N′-(cis-4-{[4-(dimethylamino)-5-methylpyrimidin-2-yl]amino}cyclohexyl)-N-(2-fluorophenyl)-N-methylurea]
13 | > 200 nM | COc1ccc(S(=O)(=O)c2ncccc2C(=O)N[C@H]2CC[C@@H](Nc3nc(C)cc(N(C)C)n3)CC2)cc1 [Example 3380, N-(cis-4-{[4-(dimethylamino)-6-methylpyrimidin-2-yl]amino}cyclohexyl)-2-[(4-methoxyphenyl)sulfonyl]-nicotinamide]

Same assay, conditions: FLIPR/FDSS, antagonist activity vs 50 nM MCH; class by percent of control at 10^−7 M or IC50; table after the classification; read-out: class

Row | SMILES | IC50
14 | O=C(N[C@H]1CC[C@@H](Nc2ccc3ccccc3n2)CC1)c1cccnc1Oc1ccccc1Br [Example 3048, 2-(2-Bromophenoxy)-N-[cis-4-(quinolin-2-ylamino)-cyclohexyl]-nicotinamide hydrochloride] | < 50 nM
15 | Cc1cc(N[C@H]2CC[C@@H](NC(=O)c3cccc(O)c3)CC2)nc2ccccc12 [Example 3160, 3-Hydroxy-N-[cis-4-(4-methyl-quinolin-2-ylamino)-cyclohexyl]-benzamide hydrochloride] | < 50 nM
16 | Nc1cc(N[C@H]2CC[C@@H](NC(=O)c3ccc(F)c(F)c3)CC2)nc2ccccc12 [Example 3235, N-[cis-4-(4-Amino-quinolin-2-ylamino)-cyclohexyl]-3,4-difluoro-benzamide hydrochloride] | < 50 nM
17 | Cc1cc(N[C@H]2CC[C@@H](NC(=O)C(c3ccccc3)c3ccccc3)CC2)nc2ccccc12 [Example 3089, N-[cis-4-(4-Methyl-quinolin-2-ylamino)-cyclohexyl]-2,2-diphenyl-acetamide hydrochloride] | < 50 nM
18 | Cc1cc(N(C)C)nc(N[C@H]2CC[C@@H](NC(=O)c3cccnc3Oc3ccccc3)CC2)n1 [Example 3126, N-[cis-4-(4-Dimethylamino-6-methyl-pyrimidin-2-ylamino)-cyclohexyl]-2-phenoxy-nicotinamide hydrochloride] | < 50 nM
19 | Cc1cc(C)nc(N[C@H]2CC[C@@H](NC(=O)c3cccnc3Oc3ccccc3)CC2)n1 [Example 3143, N-[cis-4-(4,6-Dimethyl-pyrimidin-2-ylamino)-cyclohexyl]-2-phenoxy-nicotinamide hydrochloride] | > 200 nM
20 | CN(C)c1ccnc(N[C@H]2CC[C@@H](NC(=O)c3cccnc3)CC2)n1 [Example 3209, N-[cis-4-(4-Dimethylamino-pyrimidin-2-ylamino)-cyclohexyl]-nicotinamide dihydrochloride] | > 200 nM
21 | Cc1cc(N[C@H]2CC[C@@H](NC(=O)c3csc([N+](=O)[O-])c3)CC2)nc2ccccc12 [Example 3074, 5-Nitro-thiophene-3-carboxylic acid [cis-4-(4-methyl-quinolin-2-ylamino)-cyclohexyl]-amide hydrochloride] | < 50 nM
22 | Cn1cc([N+](=O)[O-])cc1C(=O)N[C@H]1CC[C@@H](Nc2ccc3ccccc3n2)CC1 [Example 3042, 1-Methyl-4-nitro-1H-pyrrole-2-carboxylic acid [cis-4-(quinolin-2-ylamino)-cyclohexyl]-amide hydrochloride] | < 50 nM
23 | Cc1cc(N[C@H]2CC[C@@H](NC(=O)c3ccc(C(F)(F)F)nc3)CC2)nc2ccccc12 [Example 3186, N-[cis-4-(4-Methyl-quinolin-2-ylamino)-cyclohexyl]-6-trifluoromethyl-nicotinamide hydrochloride] | 50 to 200 nM
24 | Cc1cc(N[C@H]2CC[C@@H](NC(=O)c3ccc(C#N)cc3)CC2)nc2ccccc12 [Example 3077, 4-Cyano-N-[cis-4-(4-methyl-quinolin-2-ylamino)-cyclohexyl]-benzamide hydrochloride] | < 50 nM
25 | Cc1cc(N[C@H]2CC[C@@H](NC(=O)c3cccnc3O)CC2)nc2ccccc12 [Example 3173, 2-Hydroxy-N-[cis-4-(4-methyl-quinolin-2-ylamino)-cyclohexyl]-nicotinamide hydrochloride] | > 200 nM
26 | CN(C)c1nc(N[C@H]2CC[C@@H](CNC(=O)Nc3cccc(Cl)c3Cl)CC2)nc2c1CCCC2 [Example 3196, 1-(2,3-Dichloro-phenyl)-3-[cis-4-(4-dimethylamino-5,6,7,8-tetrahydro-quinazolin-2-ylamino)-cyclohexylmethyl]-urea hydrochloride] | 50 to 200 nM
27 | Cc1cnc(N[C@H]2CC[C@@H](NC(=O)c3cc(F)cc(Cl)c3)CC2)nc1N(C)C [Example 3388, 3-Chloro-N-[cis-4-(4-dimethylamino5-methyl-pyrimidin-2-ylamino)-cyclohexyl]5-fluoro-benzamide hydrochloride] | < 50 nM

Now from value to compound:

Row | IC50 | SMILES
28 | 50 to 200 nM | Cc1cc(N[C@H]2CC[C@@H](NC(=O)c3cccnc3N)CC2)nc2ccccc12 [Example 3161, 2-Amino-N-[cis-4-(4-methyl-quinolin-2-ylamino)-cyclohexyl]-nicotinamide dihydrochloride]
29 | 50 to 200 nM | Cc1cc(N[C@H]2CC[C@@H](NC(=O)c3ccccn3)CC2)nc2ccccc12 [Example 3181, Pyridine-2-carboxylic acid [cis-4-(4-methyl-quinolin-2-ylamino)-cyclohexyl]-amide hydrochloride]
30 | < 50 nM | CN(C)c1cc(N[C@H]2CC[C@@H](NC(=O)c3cccnc3Oc3ccccc3)CC2)nc2ccccc12 [Example 3114, N-[cis-4-(4-Dimethylamino-quinolin-2-ylamino)-cyclohexyl]-2-phenoxy-nicotinamide hydrochloride]
31 | > 200 nM | Cc1cc(N[C@H]2CC[C@@H](NC(=O)c3ccc(-n4ccnc4)nc3)CC2)nc2ccccc12 [Example 3187, 6-Imidazol-1-yl-N-[cis-4-(4-methyl-quinolin-2-ylamino)-cyclohexyl]-nicotinamide dihydrochloride]
32 | < 50 nM | CN(C)c1ccnc(N[C@H]2CC[C@@H](CNC(=O)Nc3cccc(Cl)c3Cl)CC2)n1 [Example 3222, 1-(2,3-Dichloro-phenyl)-3-[cis-4-(4-dimethylamino-pyrimidin-2-ylamino)-cyclohexylmethyl]-urea hydrochloride]
33 | < 50 nM | Cc1cc(N[C@H]2CC[C@@H](NC(=O)c3ccc(Cl)cc3)CC2)nc2ccccc12 [Example 3172, 4-Chloro-N-[cis-4-(4-methyl-quinolin-2-ylamino)-cyclohexyl]-benzamide hydrochloride]
34 | < 50 nM | COc1cccc(OCC(=O)N[C@H]2CC[C@@H](Nc3cc(C)c4ccccc4n3)CC2)c1 [Example 3098, 2-(3-Methoxy-phenoxy)-N-[cis-4-(4-methyl-quinolin-2-ylamino)-cyclohexyl]-acetamide hydrochloride]
